In article PMC10794982, “β-Caryophyllene Inhibits Monoacylglycerol Lipase Activity and Increases 2-Arachidonoyl Glycerol Levels In Vivo: A New Mechanism of Endocannabinoid-Mediated Analgesia?” (Molecular Pharmacology, 2024):

Assays:
[1] = target: T1, monoacylglycerol lipase (MAGL) (Homo sapiens, UniProt Q99685); assay: hydrolysis by kit MAGL, arachidonic acid product by HPLC-MS/MS; type: biochemical
T1 construct: gene MGLL
T1 sequence (Q99685 1-303): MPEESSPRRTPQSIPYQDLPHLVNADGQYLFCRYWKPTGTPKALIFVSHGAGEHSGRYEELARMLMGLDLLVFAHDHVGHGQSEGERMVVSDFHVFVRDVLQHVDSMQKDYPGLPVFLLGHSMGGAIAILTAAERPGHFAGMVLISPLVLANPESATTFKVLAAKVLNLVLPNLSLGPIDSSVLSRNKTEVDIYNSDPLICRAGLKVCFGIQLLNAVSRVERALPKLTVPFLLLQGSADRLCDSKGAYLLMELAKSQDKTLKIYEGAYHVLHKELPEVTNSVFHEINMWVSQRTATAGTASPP
Method: hydrolysis by kit MAGL, arachidonic acid product by HPLC-MS/MS on monoacylglycerol lipase (MAGL) | natural substrate 2-AG, which is hydrolyzed by MAGL to glycerol and AA. AA concentrations were determined using HPLC-MS/MS

[2] = target: T1, monoacylglycerol lipase (MAGL); assay: modified Cayman MAGL inhibitor kit, 2-AG hydrolysis to arachidonic acid by HPLC-MS/MS; type: biochemical

| SMILES | hydrolysis by kit MAGL, arachidonic acid product by HPLC-MS/MS [1] | IC50 [2] |
| --- | --- | --- |
| CCCCC/C=C\C/C=C\C/C=C\C/C=C\CCCC(=O)OC(CO)CO [2-AG, 2-arachidonoylglycerol] | natural substrate 2-AG, which is hydrolyzed by MAGL to glycerol and AA. AA concentrations were determined using HPLC-MS/MS |  |
| C=C1CC/C=C(\C)CC[C@@H]2[C@@H]1CC2(C)C [BCP, β-Caryophyllene] |  | 15.8 µM |
